Experimental data reported in patent US20240252493A1, “Apelin Receptor Modulators for Treating Age-Related Muscle Conditions” (BIOAGE LABS, INC., priority 2021, published 2024).
“Also recorded” adds a separate entry of the source.

Legend:
25-HMC = assay: Proliferation of immortalized human muscle cells, younger donor; format: cell-based; details: for cell proliferation (measured at day 4): younger subject cells
Experimental: Immortalized human cells from male donors (25-HMC) […] (79-HMC) are grown from the proliferation stage until they become 80% confluent, differentiate, and become myotubes. […] Early proliferation markers (Pax7, Myf5, MyoD, and MyoG were assessed via RT-PCR (FIG. 8D to 8K)

[1] = test system: aged (24-month-old) C57BL/6 mice; assay: Grid hang test (forearm grip strength); format: in vivo; details: after 64 days of treatment, vs vehicle
Experimental: Four 20-gallon plastic buckets were used to suspend a three-by-three-foot metal grid suspended approximately three feet from the ground. The ground just below the grid was padded with soft material. The metal grid was placed on its side so that it was perpendicular to the buckets' surface. […] Once the grid was completely parallel with the horizontal plane (i.e. the floor), the timer was started. The timer was stopped when the mouse fell onto the padded floor and the time to fall was recorded and graphed.
To determine whether increased wheel activity was accompanied by an increase in muscle strength, near the end of the frailty study the mice were subjected to a grid hang test, which measures forearm grip strength. […] Average latency to fall increased in the BGE-105-treated mice (p=0.04, Mann-Whitney U test) (FIGS. 3B and 3C). Thus, the increase in running activity observed in BGE-105-treated mice were accompanied by improved forearm grip strength.

apelin receptor = assay: Apelin receptor levels after one month of BGE-105 in immobilized aged mice; format: in vivo; details: after one month of treatment at 50 mg/kg BID
pAMPK = assay: Western blot of pAMPK in heart after oral BGE-105; format: in vivo; details: mice, oral 45 mg/kg, vs vehicle
Excerpt: (§1) Administration of an apelin receptor agonist can induce the phosphorylation and activation of AMPK in heart tissue. Tissue samples were lysed using T-PER tissue protein extraction reagent (Thermo Fisher Scientific #78510) containing EDTA and protease/phosphatase inhibitors on the Omni Bead Ruptor 12 Homogenizer. Total protein was extracted then quantified using Pierce™ BCA Protein Assay Kit. Loaded equal amounts of total protein per lane on a 4-12% SDS-PAGE gel and transferred to PVDF membrane. Membranes were blocked and blotted with anti-phospho-AMPKα-Thr172 (Cell Signaling Technology, CST #2535), total-AMPKα (CST #2532), anti-phospho-Akt-SeR^473 (CST #4060), total-Akt (CST #4685), anti-phospho-ERK-1/2-Thr202/Tyr204 of Erk1 and Thr185/Tyr187 of Erk2 (CST #4370), total-ERK-1/2 (CST #9107) or anti-APLNR receptor (abcam, ab214369) antibodies. Band intensities were normalized to loading control anti-β-Actin (CST #3700) or anti-GAPDH (abcam, ab181602) antibodies. Immunoreactive proteins were detected using SuperSignal™ West Femto Substrate (Thermo Fisher Scientific #34095) and quantified by Image Lab™ software (Bio-Rad Laboratories, Inc.).
(§2) Apelin can induce the phosphorylation of Akt in the soleus muscle and improve glucose homeostasis. […]

[2] = test system: immobilized human muscles; assay: Bed rest study in healthy older adult humans; format: in vivo; details: healthy older adults, 10 days bed rest, 200 mg a day
Excerpt: Two groups of healthy older adult humans (e.g., N=10 per group) who are moderately active remain in bed continuously for 10 days, except for toileting, and they consume a eucaloric diet providing the recommended dietary allowance for protein (0.8 g/kg of protein per day). […] Measurements before and after bed rest include muscle function and protein synthesis.

pAkt = assay: Western blot of pAkt in soleus after oral BGE-105; format: in vivo; details: mice, oral 45 mg/kg, vs vehicle
Excerpt: as §1, §2

[3] = pH of BGE-105 dissolved in deionized water; format: physicochemical; details: 275 ug/mL in deionized water
Experimental: BGE-105 was administered in drinking water consumed ad libitum. The compound is mildly acidic when dissolved, resulting in a pH 4.5 solution. The deionized water was adjusted to pH 8.5 by adding 1N NaOH. The vehicle control group consumed water (ad libitum) of the same pH without drug.

[4] = test system: Twenty-month-old male C57/B16 mice; assay: Disuse-induced muscle atrophy (hindlimb casting) in aged mice; format: in vivo
Excerpt: Limb immobilization causes a loss of gross skeletal muscle mass accompanied by a significant decrease in apelin transcript levels.
One week into the treatment, mice underwent modified hindlimb casting on one limb. Mice were anesthetized with isoflurane inhalation and the hindlimb wiped with povidone-iodine, then ethanol, and loosely wrapped in surgical gauze. A custom-made plastic immobilization device was placed on the limb, with the foot in full extension, so as to result in the maximal in vivo unloading of the plantarflexor group. The device was fixed to the hindlimb using Vetbond and the animal returned to its cage. After 3 weeks of treatment following casting, mice were euthanized 1 hour after the final ZT1 dose, and tissues isolated, weighed, then flash frozen in liquid nitrogen for subsequent western blot analysis.

[5] = 20-month-old immobilized mice, 50 mg/kg BID, 50 mg/kg

Q: With `COc1cccc(OC)c1-n1c(NS(=O)(=O)[C@@H](C)[C@H](C)c2ncc(C)cn2)nnc1-c1cncc(C)c1` [BGE-105, (2S,3R)—N-(4-(2,6-dimethoxyphenyl)-5-(5-methyl-3-pyridinyl)-4H-1,2,4-triazol-3-yl)-3-(5-methyl-2-pyrimidinyl)-2-butanesulfonamide] as the molecule, how does the “cell proliferation, short-term treatment” value (25-HMC; young donor cells, day 0 to day 4 post seeding) read?
A: significant increase of cell proliferation

Q: And the “cell proliferation (measured at day 4)” value (25-HMC; 5 nM)?
A: increase

Q: And the “cell proliferation (measured at day 4)” value (25-HMC; 50 nM)?
A: significant increase in cell proliferation

Q: And the “latency to fall in grid hang test (grip strength)” value [1]?
A: statistically significant improvement in grip strength; also recorded: increase in the latency to fall; also recorded: increased

Q: And the apelin receptor levels (apelin receptor)?
A: noticeable but non-significant drop

Q: What about the “pAMPK levels in the heart” value (pAMPK) of the same molecule?
A: increased levels; also recorded: significantly higher

Q: And the “muscle atrophy in immobilized human muscles” value [2]?
A: prevent or attenuate muscle atrophy

Q: What about the “pAkt levels in the soleus” value (pAkt) of the same molecule?
A: increased levels; also recorded: marginally significant increase

Q: And the “pH of solution when dissolved” value [3]?
A: 4.5

Q: And the “extensor digitorum longus (EDL) muscle weight / atrophy” value [4, 5]?
A: did not measurably atrophy; also recorded: near significant improvement in muscle weight; also recorded: near significant decrease in the percent atrophy

Q: And the gastrocnemius atrophy [4, 5]?
A: less effective; also recorded: no improvement

Q: And the “soleus muscle weight / atrophy” value [4, 5]?
A: modest rescue in atrophy; also recorded: near significant improvement in muscle weight; also recorded: marginal improvement in the percent atrophy

Q: And the “tibialis anterior muscle weight / percent atrophy vs vehicle” value [4, 5]?
A: significant improvement in maintaining muscle weight; also recorded: significant decrease in the percent atrophy

Q: And the “decrease in wet weight of tibialis anterior (TA) muscle” value ([4]; casted limb, 50 mg/kg BID P.O., 21 days immobilization)?
A: 3%

Q: And the “muscle atrophy / loss of muscle mass induced by immobilization” value ([4]; immobilized aged mice, orally dosed, vs vehicle)?
A: significantly reduced muscle atrophy; also recorded: protected against some loss of muscle mass
